Experimental data reported in patent US5260335A, “Pharmaceutical preparations for the treatment of inflammatory diseases” (Plantamed Arzneimittel GmbH, priority 1991, dated 1993).

Key:
[1] = test system: bronchial obstruction after allergen inhalation; experiment: Inhibition of bronchial obstruction after allergen (ovalbumin) inhalation in sensitized guinea pigs; assay type: in vivo; conditions: for activity in preventing bronchial obstruction after inhalation of an allergen (in words): methyl gallate, gallic acid and quercetin compared
Method: Male white guinea pigs were sensitized by means of intraperitoneal and intramuscular injection of ovalbumin according to the well-known methods. […] All the experiments were conducted according to a randomized evaluation record: Groups of 10 to 14 animals were divided into two sub-groups and either treated with the material to be studied or with control solutions. […] Ovalbumin, PAF, histamine and acetylcholine were administered as an aerosol atomized by ultrasound. Spontaneously breathing animals were placed in a dual-chamber body plethysmograph in which the two chambers were separated around the head of the animals by a rubber collar filled with water. Changes in volume in the two chambers were measured by means of pressure transfer systems. The degree of bronchial obstruction was determined by means of the parameter, "compressed air".

[2] = test system: PAF-induced bronchial obstruction; experiment: Inhibition of PAF-induced bronchial reaction (successive inhalation of histamine, PAF and histamine); assay type: in vivo, guinea pigs
Method: All the experiments were conducted according to a randomized evaluation record:
Groups of 10 to 14 animals were divided into two sub-groups and either treated with the material to be studied or with control solutions.
1 hour, 12 hours, 4 or 7 days after the pretreatment, the animals were exposed to various inhalation stimuli. […] Ovalbumin, PAF, histamine and acetylcholine were administered as an aerosol atomized by ultrasound.
Spontaneously breathing animals were placed in a dual-chamber body plethysmograph in which the two chambers were separated around the head of the animals by a rubber collar filled with water. Changes in volume in the two chambers were measured by means of pressure transfer systems. The degree of bronchial obstruction was determined by means of the parameter, "compressed air".
The action of the plant extracts or of the compounds on the PAF-induced reaction was studied by means of the successive inhalation of histamine, PAF and histamine:
One group of animals was divided into two sub-groups and both sub-groups inhaled histamine in a concentration causing a moderate bronchial obstruction. One hour later, one group was given the substances to be studied, the other group was given the solvent alone. Both groups were subjected 12 hours later to a stimulus by means of the successive inhalation of PAF and histamine with 1 μg PAF at first and, 60 minutes later, the same dose of histamine being given as before.

| Structure (SMILES) | % inhibition of bronchial obstruction after allergen inhalation, 1st stimulus ([1]; 5 mg/kg) | % inhibition of bronchial obstruction after allergen inhalation, 2nd stimulus ([1]; 5 mg/kg) | inhibition of bronchial reactions to an allergen stimulus ([1]; oral dose of 5 mg/kg) | % inhibition of bronchial obstruction after PAF inhalation ([2]; 5 mg/kg) | inhibition of PAF-induced bronchial reaction ([2]; oral dose of 5 mg/kg) | % inhibition of bronchial obstruction after allergen inhalation, 1st stimulus ([1]; 45 mg/kg) | % inhibition of bronchial obstruction after allergen inhalation, 2nd stimulus ([1]; 45 mg/kg) | activity in preventing bronchial obstruction after inhalation of an allergen (in words) [1] | % inhibition of bronchial obstruction after PAF inhalation ([2]; 45 mg/kg) | activity in PAF-induced bronchial obstruction (in words) ([2]; compared with the mixture of quercetin, gallic acid and protocatechinic acid) |
| --- | --- | --- | --- | --- | --- | --- | --- | --- | --- | --- |
| O=C(OC1CC(OC(=O)c2cc(O)c(O)c(O)c2)(C(=O)O)CC(OC(=O)c2cc(O)c(O)c(O)c2)C1OC(=O)c1cc(O)c(O)c(O)c1)c1cc(O)c(O)c(O)c1 (single isomer, unassigned) [tetragalloylquinic acid] | 86 ± 24% | 57 ± 79% | 86±24% | 60 ± 43% | about 60% |  |  |  |  |  |
| O=C(O)c1cc(O)c(O)c(O)c1 [Gallic acid, gallic acid] |  |  |  |  |  | 37 ± 35% | 40 ± 31% | about the same activity |  |  |
| COC(=O)c1cc(O)c(O)c(O)c1 [Methyl gallate, methyl gallate] |  |  |  |  |  | 43 ± 34% | 41 ± 24% | about the same activity | 65 ± 24% | somewhat more activity than the mixture |
| O=c1c(O)c(-c2ccc(O)c(O)c2)oc2cc(O)cc(O)c12 [Quercetin, quercetin, reference compound] |  |  |  |  |  | 53 ± 23% | 34 ± 33% | about the same activity |  |  |
